Where “and” joins values, the source holds several entries; their conditions need not be identical. Identical values can stand only once. Like-named read-outs stand apart in the source and are kept apart here.
Tests used:
[1] = system: LPS-induced IL-6 production in RAW 264.7 cells; settings: LPS-activated RAW 264.7; for IL-6 level: cells treated with 25 μM compound
[2] = system: LPS-induced ROS production in RAW 264.7 cells; settings: read-out: ROS (IC50), LPS (1 μg/mL) 18 h, mean ± SEM
[3] = system: LPS-induced TNF-α production in RAW 264.7 cells; settings: for TNF-α level: cells treated with 25 μM compound
[4] = biological target: T1, ovine COX-1 (Ovis aries, UniProt P05979); assay: In vitro COX-1 inhibitory assay; assay type: biochemical
T1 sequence (P05979 25-600): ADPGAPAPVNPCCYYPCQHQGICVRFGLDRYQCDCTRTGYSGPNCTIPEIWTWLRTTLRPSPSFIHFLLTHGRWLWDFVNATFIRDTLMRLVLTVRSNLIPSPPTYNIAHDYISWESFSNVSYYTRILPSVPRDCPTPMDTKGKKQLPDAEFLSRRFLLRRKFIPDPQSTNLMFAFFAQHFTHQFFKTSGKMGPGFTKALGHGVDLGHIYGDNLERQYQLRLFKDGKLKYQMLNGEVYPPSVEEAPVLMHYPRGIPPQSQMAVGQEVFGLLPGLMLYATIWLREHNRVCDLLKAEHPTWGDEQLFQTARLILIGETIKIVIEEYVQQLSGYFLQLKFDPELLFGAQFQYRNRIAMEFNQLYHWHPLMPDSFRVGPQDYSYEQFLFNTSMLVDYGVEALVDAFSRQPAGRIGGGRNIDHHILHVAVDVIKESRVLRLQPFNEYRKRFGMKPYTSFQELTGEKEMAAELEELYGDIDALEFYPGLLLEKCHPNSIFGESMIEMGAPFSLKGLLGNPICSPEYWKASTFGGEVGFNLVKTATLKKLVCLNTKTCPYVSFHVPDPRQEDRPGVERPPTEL

[5] = biological target: T2, soybean 15-LOX (Glycine max, UniProt P08170); assay: In vitro 15-LOX inhibitory assay; assay type: biochemical
T2 sequence (P08170 1-839): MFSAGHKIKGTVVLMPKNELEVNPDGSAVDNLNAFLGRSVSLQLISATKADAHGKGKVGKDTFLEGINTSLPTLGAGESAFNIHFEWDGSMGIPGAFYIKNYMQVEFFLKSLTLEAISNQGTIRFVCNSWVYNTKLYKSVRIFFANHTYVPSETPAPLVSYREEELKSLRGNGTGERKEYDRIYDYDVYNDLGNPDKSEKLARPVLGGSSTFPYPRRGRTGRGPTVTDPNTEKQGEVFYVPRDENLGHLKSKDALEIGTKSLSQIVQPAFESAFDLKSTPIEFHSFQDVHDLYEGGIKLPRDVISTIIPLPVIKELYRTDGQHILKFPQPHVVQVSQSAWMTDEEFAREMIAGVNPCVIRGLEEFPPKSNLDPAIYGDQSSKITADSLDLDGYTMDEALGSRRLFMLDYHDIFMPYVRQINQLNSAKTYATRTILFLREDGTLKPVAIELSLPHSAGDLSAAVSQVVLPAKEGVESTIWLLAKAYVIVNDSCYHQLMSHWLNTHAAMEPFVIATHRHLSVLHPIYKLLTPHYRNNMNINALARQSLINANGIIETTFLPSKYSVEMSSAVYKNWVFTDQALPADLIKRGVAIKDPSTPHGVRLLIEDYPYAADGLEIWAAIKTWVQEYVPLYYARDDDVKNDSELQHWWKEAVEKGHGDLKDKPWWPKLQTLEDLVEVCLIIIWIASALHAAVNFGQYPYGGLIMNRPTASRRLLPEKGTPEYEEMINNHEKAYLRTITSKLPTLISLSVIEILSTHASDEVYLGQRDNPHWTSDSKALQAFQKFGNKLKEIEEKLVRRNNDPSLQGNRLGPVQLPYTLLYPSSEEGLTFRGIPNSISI

[6] = biological target: T3, human recombinant COX-2 (Homo sapiens, UniProt P35354); assay: In vitro COX-2 inhibitory assay; assay type: biochemical; settings: for Enhancement of anti-COX-2 activity by p-Cl on benzylidine: compared with unsubstituted compounds 4b, 4c, 4g, 4h respectively
T3 sequence (P35354 18-604): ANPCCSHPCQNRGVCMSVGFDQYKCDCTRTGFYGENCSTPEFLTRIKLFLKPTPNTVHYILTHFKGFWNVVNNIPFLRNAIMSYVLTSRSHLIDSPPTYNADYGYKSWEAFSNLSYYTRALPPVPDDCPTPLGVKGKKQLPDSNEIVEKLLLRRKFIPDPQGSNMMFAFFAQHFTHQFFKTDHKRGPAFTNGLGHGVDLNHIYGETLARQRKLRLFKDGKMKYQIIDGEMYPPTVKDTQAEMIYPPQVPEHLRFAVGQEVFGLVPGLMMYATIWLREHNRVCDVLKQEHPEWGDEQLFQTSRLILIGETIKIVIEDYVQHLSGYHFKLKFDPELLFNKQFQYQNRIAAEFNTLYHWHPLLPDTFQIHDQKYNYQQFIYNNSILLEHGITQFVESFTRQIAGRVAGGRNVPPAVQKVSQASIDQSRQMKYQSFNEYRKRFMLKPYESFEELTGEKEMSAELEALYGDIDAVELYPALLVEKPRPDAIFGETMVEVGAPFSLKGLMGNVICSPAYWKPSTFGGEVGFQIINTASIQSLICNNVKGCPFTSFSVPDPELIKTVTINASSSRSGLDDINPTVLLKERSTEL

[7] = Cell viability assay; assay type: cell-based, murine; settings: mouse, RAW 264.7 macrophage cells
[8] = system: LPS-induced ROS production in RAW 264.7 cells; assay: cells; settings: Mus musculus, RAW264.7, 18 h, read-out: ROS (IC50)
[9] = system: NF-κB activation in RAW 264.7 macrophages; assay: NF-κB activation in LPS-activated RAW 264.7 macrophages; assay type: cell-based, murine; settings: 25 μM pretreatment, Western blot
[10] = read-out: COX1, IC50, ovine COX-1, mean ± SEM
[11] = read-out: 15-LOX IC50, soybean 15-LOX

Row | SMILES | IL-6 level [1] | IC50 [2] | TNF-α level ([3]; LPS-activated RAW 264.7) | TNF-α inhibition, fold more potent than celecoxib ([3]; vs celecoxib) | IC50 [4, 10] | IC50 [5, 11] | SI (Selectivity index = COX-1 IC50/COX-2 IC50) [6] | IC50 ([6]; read-out: COX2, IC50) | Lowering of IL-6 level [1] | viability at 50 µM [7] | IC50 [8] | Lowering of TNF-α level ([3]; LPS-activated RAW 264.7) | IC50 [4] | IC50 [5] | IC50 [6] | SI (Selectivity index = COX-1 IC50/COX-2 IC50) ([6]; COX-1 IC50/COX-2 IC50) | LPS-mediated increase in NF-κB activation (phospho/total NF-κB) [9] | Enhancement of anti-COX-2 activity by p-Cl on benzylidine [6]
1 | COc1cc(NC(=O)CSC2=N/C(=C\c3ccccc3)C(=O)N2c2ccccc2)cc(OC)c1OC [Compound 4g, (Z)-2-[(4-Benzylidene-5-oxo-1-phenyl-4,5-dihydro-1H-imidazol-2-yl)thio]-N-(3,4,5-trimethoxyphenyl) acetamide] | 11.51 ± 3.09 pg/mL | 65.9 ± 1.55 µM | 12.23 pg/mL and 12.23 ± 3.09 pg/mL | ~2 fold | 9.83 ± 1.65 µM | 2.82 ± 1.27 µM | 68.07 | 0.14 ± 0.073 µM |  |  |  |  |  |  |  |  |  | 
2 | Cc1ccc(NC(=O)CSC2=N/C(=C\c3ccccc3)C(=O)N2c2ccccc2)cc1 [Compound 4e, (Z)-2-[(4-Benzylidene-5-oxo-1-phenyl-4,5-dihydro-1H-imidazol-2-yl)thio]-N-(4-tolyl) acetamide] | 34.33 ± 1.82 pg/mL | 118 ± 2.36 µM | 58.19 ± 23.16 pg/mL |  | 9.12 ± 1.4 µM | 5.14 ± 2.48 µM | 90.85 | 0.1 ± 0.048 µM |  |  |  |  |  |  |  |  |  | 
3 | COc1ccc(NC(=O)CSC2=N/C(=C\c3ccccc3)C(=O)N2c2ccccc2)cc1 [Compound 4f, (Z)-2-[(4-Benzylidene-5-oxo-1-phenyl-4,5-dihydro-1H-imidazol-2-yl)thio]-N-(4-methoxyphenyl)acetamide] | 22.21 pg/mL and 22.21 ± 6.32 pg/mL |  | 22.94 ± 6.32 pg/mL |  |  |  |  |  | ~ 80% | 83 to 105% | 22.8 ± 1.32 µM | ~ 80% | 11 ± 1.53 µM | 3.96 ± 1.49 µM | 0.08 ± 0.04 µM | 131.59 | attenuated | 
4 | O=C(CSC1=N/C(=C\c2ccccc2)C(=O)N1c1ccccc1)Nc1ccc(F)cc1 [Compound 4b, (Z)-2-[(4-Benzylidene-5-oxo-1-phenyl-4,5-dihydro-1H-imidazol-2-yl)thio]-N-(4-fluorophenyl) acetamide] | 50.90 ± 10.35 pg/mL | 23.8 ± 1.44 µM | 51.63 ± 10.35 pg/mL |  | 12.6 ± 1.78 µM | 3.13 ± 1.49 µM | 99.06 | 0.13 ± 0.068 µM |  |  |  |  |  |  |  |  |  | 
5 | O=C(CSC1=N/C(=C\c2ccc(Cl)cc2)C(=O)N1c1ccccc1)Nc1ccc(F)cc1 [Compound 4k, (Z)-2-{[4-(4-Chlorobenzylidene)-5-oxo-1-phenyl-4,5-dihydro-1H-imidazol-2-yl]thio}-N-(4-fluorophenyl)acetamide] | 27.57 ± 14.76 pg/mL |  | 28.29 ± 14.76 pg/mL |  |  |  |  |  |  | 83 to 105% | 71 ± 1.55 µM |  | 13 ± 1.82 µM | 2.17 ± 1.04 µM | 0.07 ± 0.034 µM | 186.28 |  | 1.85 folds
6 | O=C(CSC1=N/C(=C\c2ccccc2)C(=O)N1c1ccccc1)Nc1ccc(Br)cc1 [Compound 4d, (Z)-2-[(4-Benzylidene-5-oxo-1-phenyl-4,5-dihydro-1H-imidazol-2-yl)thio]-N-(4-bromophenyl) acetamide] | 26.35 pg/mL and 26.35 ± 4.22 pg/mL | 62.1 ± 1.51 µM | 27.08 pg/mL and 27.08 ± 4.22 pg/mL |  | 8.14 ± 1.53 µM | 5.14 ± 2.48 µM | 64.13 | 0.13 ± 0.071 µM |  |  |  |  |  |  |  |  |  | 
7 | O=C(CSC1=N/C(=C\c2ccc(Cl)cc2)C(=O)N1c1ccccc1)Nc1ccc(Cl)cc1 [Compound 4l, (Z)-2-{[4-(4-Chlorobenzylidene)-5-oxo-1-phenyl-4,5-dihydro-1H-imidazol-2-yl]thio}-N-(4-chlorophenyl)acetamide] | 25.57 pg/mL and 25.75 ± 5.33 pg/mL |  | 26.47 ± 5.33 pg/mL |  |  |  |  |  |  | 83 to 105% | 52.7 ± 1.35 µM |  | 12.3 ± 1.84 µM | 2.69 ± 1.29 µM | 0.08 ± 0.035 µM | 154.73 | attenuated | 1.75 folds
8 | O=C(CSC1=N/C(=C\c2ccccc2)C(=O)N1c1ccccc1)Nc1ccc(Cl)cc1 [Compound 4c, (Z)-2-[(4-Benzylidene-5-oxo-1-phenyl-4,5-dihydro-1H-imidazol-2-yl)thio]-N-(4-chlorophenyl) acetamide] | 49.08 ± 23.20 pg/mL | 61.6 ± 1.51 µM | 49.81 ± 23.20 pg/mL |  | 9.12 ± 1.4 µM | 3.24 ± 1.46 µM | 64.62 | 0.14 ± 0.062 µM |  |  |  |  |  |  |  |  |  | 
